Experimental data published in patent US10780092B2, “Fused pyrazine derivatives useful as soluble guanylate cyclase stimulators” (Merck Sharp & Dohme Corp., priority 2016, dated 2020).

Tests used:
[1] = target: human recombinant sGC enzyme (Homo sapiens (Human), UniProt Q02108+Q02153); assay: SEC competition binding assay with [3H] Compound B radioligand; settings: displacement of 1.6 nM [3H] Compound B, 24 h at 37° C.
Method: The binding potencies of sGC compounds to the human recombinant sGC enzyme were determined in a Size Exclusion Chromatography (SEC) competition binding assay using [^3H] Compound B as the radioligand. [^3H] Compound B was prepared using a standardardized tritium exchange procedure. The parent (non-labeled) molecule was first iodinated then a Pd-catalyzed iodine to tritium exchange provided the labeled compound.
Method: The binding buffer was composed of 50 mM triethanolamine pH 7.4, 3 mM MgCl2, 0.025% BSA, 2 mM dithiothreitol (DTT), 300 μM DETA/NO and 400 μM GTP. Assays were conducted in 96-well plates in a total volume of 200 μL. Recombinant human sGC protein (40 ng) was incubated with 1.6 nM [^3H] Compound B for 24 h at 37° C. in the presence and absence of various concentrations of sGC testing compounds delivered as DMSO solutions to give a total of 1% organic solvent content. Non-specific binding was defined by competition with 1 μM of Compound B. After the incubation period, the binding mixtures were loaded onto the gel-filtration plate (ThermoFischer Cat. No. 89808) pre-equilibrated with binding buffer and spun at 1000×g for 3 min at 4° C. on a Bench top centrifuge. The collected eluates in White Frame Clear Well Isoplates (Perkin Elmer Cat #6005040) received 100 μl of UltimaGold scintillation cocktail. The sealed plates were shaken vigorously and span, and counted after 6 hs with a Wallac Microbeta TriLux 1450 LSC & Luminescence Counter (Perkin Elmer). Data from competition experiments were analyzed to determine Ki values using one site—fit Ki equation.

sGC α1/β1 heterodimer = sGC α1/β1 heterodimer (Homo sapiens (Human), UniProt Q02108+Q02153); assay: Cell-based sGC functional assay (CASA assay), cGMP by HTRF; settings: CHO-K1/sGC cells; for % Activation: cGMP production as percentage of maximum of compound A (set to 100%); for EC50: inflection point of cGMP production, 4P fit, read-out: IP; for Emax: CHO-K1, cGMP production as percentage of maximum of compound A (set to 100%), read-out: % Activation
Excerpt: Cell-Based sGC Functional Assay (Cyclic GMP Assay for sGC Activator: CASA Assay)
Soluble guanylate cyclase (sGC) is a heme-containing enzyme that converts GTP to secondary messenger cGMP. Increases in cGMP levels affect several physiological processes including vasorelaxation through multiple downstream pathways. […] Heme-dependent activators (HDAs) preferentially target sGC containing a ferrous heme group. To determine the effect of sGC activators on enzyme activity, the CASA assay was developed to monitor the generation of cGMP in a cell line that stably expresses the heterodimeric sGC protein.
A CHO-K1 cell line stably expressing the sGC α1/β1 heterodimer was generated using a standard transfection protocol. The cDNA's encoding human sGC α1 and β1 were cloned in pIRES hyg and pIRES neo respectively using standard molecular biology techniques. The plasmids pIRES hyg and pIRES neo plasmids were obtained from Clontech. CHO-K1 cells were transfected with plasmids pIREShyg-hsGCα1 and pIRESneo-hsGCβ1 simultaneously using FUGENE reagent. Clones that stably express both subunits were selected with hygromycin and neomycin for ˜2 weeks. The clone chosen for the assay was designated CHO-K1/sGC. CHO-K1/sGC cells were maintained in F-K12 medium containing 10% heat-inactivated Fetal Bovine Serum (FBS), 100 μg/mL penicillin/streptomycin, 0.5 mg/mL hygromycin and 0.25 mg/mL G418. The cells were then cryopreserved in liquid nitrogen. On the day of the assay, the cells were thawed and resuspended in EBSS Assay Buffer (Sigma, E3024) supplemented with 5 mM MgCl2, 10 mM HEPES (4-(2-hydroxyethyl)piperazine-1-ethanesulfonic acid) and 0.05% BSA (bovine serum albumin) and cell density was then adjusted to 2.25×10^5/mL with EAB. IBMX (3-isobutyl-1-methylxanthin, 0.5 mM) was added to inhibit degradation of cGMP. Compounds were diluted from DMSO stock solutions and added to the assay at a final DMSO concentration of 2.5%. Cells were pre-incubated in the presence and absence of 1 μM of Diethylenetriamine/nitric oxide adduct (DETA-NO; Sigma, 17018) for 30 min at 25° C. Compounds were subsequently added and incubated for 1 hr at 37° C. At the end of the incubation period, the reaction was terminated and the cells were lysed with the detection reagents from Cisbio Kits. The level of intracellular cGMP was determined using an HTRF-based assay kit (CisBio, 62GM2PEC), which detects the displacement of a fluorescence labeled cGMP from its specific antibody. The cGMP produced by test compounds was directly compared to the maximum cGMP production (this value was set to equal 100% activation) of the published sGC compound A (Example 1 in WO 2010/065275, published Jun. 10, 2010).
The test compounds' activities were then expressed as a percentage of compound A, the standard in every experiment. This percent activation was calculated either in the presence or absence of DETA-NO which was then plotted. Inflection points (IP) and maximum fold induction was derived using Abase analysis software for 4P fit.

Ki [1] [µM]	% Activation (sGC α1/β1 heterodimer) [%]	EC50 (sGC α1/β1 heterodimer) [µM]	Emax (sGC α1/β1 heterodimer) [%]	Structure (SMILES)
0.000524	127	0.21	–	CC1CCC(Cc2nc(-c3nc(N)c4c(n3)NC(=O)C4(C)c3ccc(Cl)c(O)c3)cn3ccnc23)CC1 (stereo not drawn) [Example 108-AB, 4-Amino-5-(4-chloro-3-hydroxyphenyl)-5-methyl-2-{8-[(4-methylcyclohexyl)methyl]imidazo[1,2-a]pyrazin-6-yl}-5,7-dihydro-6H-pyrrolo[2,3-d]pyrimidin-6-one]
0.00114	–	3.53	74	CC1(c2cc(O)c(C#N)c(Cl)c2)C(=O)Nc2nc(-c3cn4ccnc4c(CC4CCCCC4)n3)nc(N)c21 (stereo not drawn) [Example 142-A, 4-(4-amino-2-{8-(cyclohexylmethyl)-imidazo[1,2-a]pyrazin-6-yl}-5-methyl-6-oxo-6,7-dihydro-5H-pyrrolo-[2,3-d]pyrimidin-5-yl)-2-chloro-6-hydroxy-benzonitrile]
0.000803	–	0.553	97	Cc1cn2cc(-c3nc(N)c4c(n3)NC(=O)C4(C)c3ccc(Cl)c(O)c3)nc(Cc3cccc(F)c3)c2n1 (stereo not drawn) [Example 99-A, 4-Amino-5-(4-chloro-3-hydroxyphenyl)-2-{8-[(3-fluorophenyl)methyl]-2-methylimidazo[1,2-a]pyrazin-6-yl}-5-methyl-5,7-dihydro-6H-pyrrolo[2,3-d]pyrimidin-6-one]
0.00108	144	0.771	–	CC1(c2cc(Cl)c(O)cn2)C(=O)Nc2nc(-c3cn4ccnc4c(Cc4ccccc4F)n3)nc(N)c21 (single isomer, unassigned) [Example 53-B, 4-Amino-5-(4-chloro-5-hydroxypyridin-2-yl)-2-{8-[(2-fluorophenyl)methyl]imidazo[1,2-a]pyrazin-6-yl}-5-methyl-5,7-dihydro-6H-pyrrolo[2,3-d]pyrimidin-6-one]
0.00121	–	0.969	113	CC1(c2ccc(Cl)c(O)c2)C(=O)Nc2nc(-c3cn4ccnc4c(CCCC(F)(F)F)n3)nc(N)c21 (stereo not drawn) [Example 55-A, 4-Amino-5-(4-chloro-3-hydroxyphenyl)-5-methyl-2-(8-(4,4,4-trifluorobutyl)imidazo[1,2-a]pyrazin-6-yl)-5,7-dihydro-6H-pyrrolo[2,3-d]pyrimidin-6-one]
0.000214	–	0.074	128	CC1(c2ccc(F)c(O)c2)C(=O)Nc2nc(-c3cn4ccnc4c(Cc4ccc(F)cc4F)n3)nc(N)c21 (stereo not drawn) [Example 22-B, 4-Amino-2-{8-[(2,4-difluorophenyl)methyl]imidazo[1,2-a]pyrazin-6-yl}-5-(4-fluoro-3-hydroxyphenyl)-5-methyl-5,7-dihydro-6H-pyrrolo[2,3-d]pyrimidin-6-one]
0.000646	–	1.2	137	CC1(c2ccc(O)c(F)c2)C(=O)Nc2nc(-c3cn4ccnc4c(Cc4ccccc4)n3)nc(N)c21 (stereo not drawn) [Example 128-B, 4-Amino-2-(8-benzyl-imidazo[1,2-a]pyrazin-6-yl)-5-(3-fluoro-4-hydroxyphenyl)-5-methyl-5,7-dihydro-6H-pyrrolo[2,3-d]-pyrimidin-6-one]
0.0029	–	0.125	91	CC1(c2cc(Cl)c(O)c(Cl)c2)C(=O)Nc2nc(-c3cn4ccnc4c(CC4CCCCC4)n3)nc(N)c21 (stereo not drawn) [Example 113-A, 4-Amino-2-(8-(cyclo-hexylmethyl)imidazo-[1,2-a]pyrazin-6-yl)-5-(3,5-dichloro-4-hydroxy-phenyl)-5-methyl-5,7-dihydro-6H-pyrrolo-[2,3-d]-pyrimidin-6-one]
0.00174	–	1.54	86	CC1(c2nccc(O)c2Cl)C(=O)Nc2nc(-c3cn4ccnc4c(Cc4cc(F)cc(F)c4)n3)nc(N)c21 (stereo not drawn) [Example 111-B, 4-Amino-5-(3-chloro-4-hydroxypyridin-2-yl)-2-{8-[(3,5-difluorophenyl)-methyl]imidazo[1,2-a]-pyrazin-6-yl}-5-methyl-5,7-dihydro-6H-pyrrolo-[2,3-d]pyrimidin-6-one]
0.00243	–	0.094	138	CC1(c2ccc(Cl)c(O)c2)C(=O)Nc2nc(-c3cn4ccnc4c(Cc4c(F)cccc4F)n3)nc(N)c21 (stereo not drawn) [Example 90-A, 4-Amino-5-(4-chloro-3-hydroxyphenyl)-2-{8-[(2,6-difluorophenyl)methyl]imidazo[1,2-a]pyrazin-6-yl}-5-methyl-5,7-dihydro-6H-pyrrolo[2,3-d]pyrimidin-6-one]
0.00257	–	2.15	141	CC1(c2ccc(O)c(Cl)c2)C(=O)Nc2nc(-c3cn4ncnc4c(Cc4ccc(F)cc4)n3)nc(N)c21 (stereo not drawn) [Example 66-B, 4-Amino-5-(3-chloro-4-hydroxyphenyl)-2-{8-[(4-fluorophenyl)methyl]-[1,2,4]triazolo[1,5-a]pyrazin-6-yl}-5-methyl-5,7-dihydro-6H-pyrrolo[2,3-d]pyrimidin-6-one]
0.000378	–	2.35	96	CC1(c2cc(O)c(C(F)(F)F)cn2)C(=O)Nc2nc(-c3cn4ccnc4c(Cc4ccccc4F)n3)nc(N)c21 (stereo not drawn) [Example 146-B, 4-amino-2-(8-{2-fluorobenzyl}imidazo-[1,2-a]pyrazin-6-yl)-5-(4-hydroxy-5-(trifluoromethyl)-pyridin-2-yl)-5-methyl-5,7-dihydro-6H-pyrrolo-[2,3-d]pyrimidin-6-one]
0.00017	–	0.078	152	CC1(c2ccc(Cl)c(O)c2)C(=O)Nc2nc(-c3cn4ccnc4c(Cc4cc(F)ccc4F)n3)nc(N)c21 (stereo not drawn) [Example 19-A, 4-Amino-5-(4-chloro-3-hydroxyphenyl)-2-{8-[(2,5-difluorophenyl)methyl]imidazo[1,2-a]pyrazin-6-yl}-5-methyl-5,7-dihydro-6H-pyrrolo[2,3-d]pyrimidin-6-one]
0.000158	–	0.308	94	CC1(c2cc(O)c(Cl)c(F)c2)C(=O)Nc2nc(-c3cn4ccnc4c(Cc4cc(F)cc(F)c4)n3)nc(N)c21 (stereo not drawn) [Example 16-B, 4-Amino-5-(4-chloro-3-fluoro-5-hydroxyphenyl)-2-{8-[(3,5-difluorophenyl)methyl]imidazo[1,2-a]pyrazin-6-yl}-5-methyl-5,7-dihydro-6H-pyrrolo[2,3-d]pyrimidin-6-one]
0.000706	–	1.35	99	CC1(c2cc(O)c(Cl)cn2)C(=O)Nc2nc(-c3cn4ccnc4c(CC4CCCC4)n3)nc(N)c21 (stereo not drawn) [Example 141-B, 4-amino-5-(5-chloro-4-hydroxypyridin-2-yl)-2-(8-(cyclopentylmethyl)-imidazo[1,2-a]pyrazin-6-yl)-5-methyl-5,7-dihydro-6H-pyrrolo-[2,3-d]pyrimidin-6-one]
